Among the data in patent US10889581B2, “Cyclopropyl fused thiazine derivatives as beta-secretase inhibitors and methods of use” (AMGEN INC., priority 2016, dated 2021) are IC50 values, retold here.

Experiment [1] deals with T1, BACE1 (Homo sapiens (Human), UniProt P56817). Briefly: In vitro enzymatic BACE1 FRET assay. In kind it is biochemical. As to conditions: pH 4.5, read-out: BACE1 Enzyme IC50.
Target sequence in this assay (P56817 46-501): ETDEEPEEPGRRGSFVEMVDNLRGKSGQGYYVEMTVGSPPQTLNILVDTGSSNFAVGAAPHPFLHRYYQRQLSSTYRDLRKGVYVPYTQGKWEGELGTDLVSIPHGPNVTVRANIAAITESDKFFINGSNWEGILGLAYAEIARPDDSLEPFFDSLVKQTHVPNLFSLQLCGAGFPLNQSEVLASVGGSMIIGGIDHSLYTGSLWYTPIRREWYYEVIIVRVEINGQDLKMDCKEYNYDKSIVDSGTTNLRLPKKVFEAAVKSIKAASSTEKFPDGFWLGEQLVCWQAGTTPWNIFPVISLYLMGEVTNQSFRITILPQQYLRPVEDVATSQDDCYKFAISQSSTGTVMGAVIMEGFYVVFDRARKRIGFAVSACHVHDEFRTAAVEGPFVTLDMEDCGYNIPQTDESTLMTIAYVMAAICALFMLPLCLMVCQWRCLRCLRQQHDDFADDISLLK
The target in experiment [2] is T1, BACE1. Kind of experiment: In vitro BACE1 cell-based assay (Aβ40 in conditioned medium of cells stably expressing APP, HTRF). The protocol:
In Vitro BACE1 Cell-Based Assay
The cell-based assay measures inhibition or reduction of Aβ40 in conditioned medium of test compound treated cells expressing amyloid precursor protein. Cells stably expressing Amyloid Precursor Protein (APP) were plated at a density of 45K cells/well in 384 well plates (Corning/BioCoat 354663). The test compounds were then added to cells in 22-point dose response concentrations with the starting concentration being 62.5 μM. The compounds were diluted from stock solutions in DMSO and the final DMSO concentration of the test compounds on cells was 0.625%. The cells were cultivated overnight at 37° C. and 5% CO2 in DMEM supplemented with 10% FBS. After 24 h of incubation with the test compounds, the conditioned media was collected and the Aβ40 levels were determined using HTRF (Homogeneous Time Resolved Fluorescence). The IC50 of the compound was calculated from the percent of control or percent inhibition of Aβ40 as a function of the concentration of the test compound.
The HTRF to detect Aβ40 was performed in 384 well plates (Costar 3658). The antibody pair that were used to detect Aβ40 from cell supernatants were ConfAb40 antibody (Amgen in-house) and biotinylated 6E10 (BIOLEGEND). As an alternative to ConfAb40, a commercially available antibody, Anti-beta Amyloid 1-40 antibody [BDI350] from Abcam, Cambridge, Mass. 02139-1517 (Product code: ab20068), may be used in this assay. The concentrations were 0.35 μg/mL of ConfAb40 antibody and 1.33 μg/mL of 6E10-biotinylated antibody, as well as 4.5 μg/mL of Streptavidin Allophycocyanin Conjugate (ThermoFisher Scientific) in HTRF Buffer ([…], 1% BSA, 0.5% Tween 20).
The conditioned media was incubated with above antibodies and Streptavidin Allophycocyanin Conjugate for 30-60 minutes at 23° C. The final readout was performed on Envision from PerkinElmer.
Target sequence in this assay (P56817 46-501, species assumed): as the sequence (P56817 46-501) above

For the next experiment, the target named is human recombinant BACE2 (Homo sapiens (Human), UniProt Q9Y5Z0). Briefly: In vitro enzymatic BACE2 FRET assay. In kind it is biochemical. The settings on record: pH 4.5, read-out: BACE2 Enzyme IC50.
human recombinant BACE2, sequence (Q9Y5Z0 63-518): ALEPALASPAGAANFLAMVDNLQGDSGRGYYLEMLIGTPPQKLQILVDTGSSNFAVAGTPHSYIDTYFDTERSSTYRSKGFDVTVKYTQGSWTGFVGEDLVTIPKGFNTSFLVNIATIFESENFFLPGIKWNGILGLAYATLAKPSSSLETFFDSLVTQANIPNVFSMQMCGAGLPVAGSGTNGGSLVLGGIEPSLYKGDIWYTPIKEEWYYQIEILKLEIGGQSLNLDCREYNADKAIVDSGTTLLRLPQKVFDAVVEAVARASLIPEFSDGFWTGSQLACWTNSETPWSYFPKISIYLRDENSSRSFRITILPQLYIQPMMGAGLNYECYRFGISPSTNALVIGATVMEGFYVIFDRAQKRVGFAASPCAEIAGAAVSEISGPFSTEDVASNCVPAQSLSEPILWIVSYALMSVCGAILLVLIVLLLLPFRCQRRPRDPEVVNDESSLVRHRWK
A further experiment concerns the target Recombinant CatD (Homo sapiens (Human), UniProt P07339). Briefly: In vitro enzymatic Cathepsin D (CatD) FRET assay. In kind it is biochemical. The settings on record: pH 3.5, read-out: Cat D Enzyme IC50.
The mark [3] stands for this setting: Aβ40, 24 h incubation, read-out: BACE1 Cell IC50.

Structures are written as SMILES.

Recombinant CatD, sequence (P07339 65-412): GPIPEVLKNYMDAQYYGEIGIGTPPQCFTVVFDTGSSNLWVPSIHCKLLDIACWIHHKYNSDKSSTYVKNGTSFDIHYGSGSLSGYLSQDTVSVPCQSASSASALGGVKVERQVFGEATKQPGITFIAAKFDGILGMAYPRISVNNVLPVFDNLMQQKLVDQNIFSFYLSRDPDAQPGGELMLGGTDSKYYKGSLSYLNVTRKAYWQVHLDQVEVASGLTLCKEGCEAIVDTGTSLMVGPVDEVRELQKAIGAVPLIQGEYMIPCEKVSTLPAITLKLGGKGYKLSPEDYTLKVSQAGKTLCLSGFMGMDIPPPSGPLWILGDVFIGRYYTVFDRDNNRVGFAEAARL

For orientation: IC50 means the midpoint of a concentration-inhibition curve. As to `Cc1cc(C#N)cnc1C#Cc1ccc(F)c([C@@]2(CF)N=C(N)S[C@@]3(CF)C[C@H]32)c1` [Example 104, 6-((3-((1S,5S,6S)-3-amino-1,5-bis(fluoromethyl)-2-thia-4-azabicyclo[4.1.0]hept-3-en-5-yl)-4-fluorophenyl)ethynyl)-5-methylnicotinonitrile], the IC50 was 0.038 µM on BACE1 [1], 0.231 µM at BACE1 [2] (setting [3]), 2.28 µM on human recombinant BACE2 and 1300 µM on Recombinant CatD.

For the molecule `Cc1cc(C#Cc2ccc(F)c([C@@]3(CF)N=C(N)S[C@@]4(/C=C/C(=O)N5CCOCC5)C[C@H]43)c2)sn1` [Example 118, (E)-3-((1R,5S,6S)-3-amino-5-(2-fluoro-5-((3-methylisothiazol-5-yl)ethynyl)phenyl)-5-(fluoromethyl)-2-thia-4-azabicyclo[4.1.0]hept-3-en-1-yl)-1-morpholinoprop-2-en-1-one], the IC50 was found to be 0.006 µM on BACE1 [1], 0.023 µM at BACE1 [2] (setting [3]), 0.017 µM at human recombinant BACE2 and 26.2 µM at Recombinant CatD.

For `C[C@]1(c2cc(C#Cc3ccc(C#N)cn3)cnc2F)N=C(N)S[C@@]2(CF)C[C@H]21` [Example 114, 6-((5-((1S,5S,6S)-3-amino-1-(fluoromethyl)-5-methyl-2-thia-4-azabicyclo[4.1.0]hept-3-en-5-yl)-6-fluoropyridin-3-yl)ethynyl)nicotinonitrile], the IC50 on BACE1 [1] is 0.637 µM; at BACE1 [2] (setting [3]), 0.677 µM; at human recombinant BACE2, 3.37 µM; at Recombinant CatD it was more than 400 µM.

Consider `Cc1cc(C#N)cnc1C#Cc1ccc(F)c([C@@]2(CF)N=C(N)S[C@@]3(C(=O)N(C)C)C[C@H]32)c1` [Example 127, (1S,5S,6S)-3-amino-5-(5-((5-cyano-3-methylpyridin-2-yl)ethynyl)-2-fluorophenyl)-5-(fluoromethyl)-N,N-dimethyl-2-thia-4-azabicyclo[4.1.0]hept-3-ene-1-carboxamide], for which the 50% inhibitory concentration (IC50) turned out to be 0.002 µM at BACE1 [1], 0.022 µM at BACE1 [2], 0.077 µM on human recombinant BACE2 and 969 µM on Recombinant CatD.

For the molecule `COC[C@]12CC1[C@@](C)(c1cc(C#Cc3ncc(C#N)cc3C)ccc1F)N=C(N)S2` (stereo partly drawn) [Example 135, 6-((3-((1S,5S)-3-amino-1-(methoxymethyl)-5-methyl-2-thia-4-azabicyclo[4.1.0]hept-3-en-5-yl)-4-fluorophenyl)ethynyl)-5-methylnicotinonitrile], the IC50 on BACE1 [1] is 0.023 µM; against BACE1 [2] it was 0.033 µM; on human recombinant BACE2, 1.47 µM; at Recombinant CatD it was more than 400 µM.

Turning to `CC#CCOc1ccc(C#Cc2ccc(F)c([C@@]3(CF)N=C(N)S[C@@]4(CF)C[C@H]43)c2)nc1` [Example 105, (1S,5S,6S)-5-(5-((5-(but-2-yn-1-yloxy)pyridin-2-yl)ethynyl)-2-fluorophenyl)-1,5-bis(fluoromethyl)-2-thia-4-azabicyclo[4.1.0]hept-3-en-3-amine], the IC50 on BACE1 [1] was determined as 0.096 µM; on BACE1 [2] (setting [3]), 0.746 µM; at human recombinant BACE2 it was 10.3 µM; on Recombinant CatD, 500 µM.

With `COC[C@]12CC1[C@@](C)(c1cc(C#Cc3ccc(C#N)cn3)ccc1F)N=C(N)S2` (stereo partly drawn) [Example 133, 6-((3-((1S,5S)-3-amino-1-(methoxymethyl)-5-methyl-2-thia-4-azabicyclo[4.1.0]hept-3-en-5-yl)-4-fluorophenyl)ethynyl)nicotinonitrile], the IC50 at BACE1 [1] was 0.097 µM; on BACE1 [2], 0.059 µM; at human recombinant BACE2 it was 2.33 µM; on Recombinant CatD it was more than 400 µM.

`NC1=N[C@](CF)(c2cc(C#Cc3ncc(Cl)cn3)ccc2F)[C@@H]2C[C@]2(/C=C/C(=O)N2CCOCC2)S1` [Example 117, (E)-3-((1R,5S,6S)-3-amino-5-(5-((5-chloropyrimidin-2-yl)ethynyl)-2-fluorophenyl)-5-(fluoromethyl)-2-thia-4-azabicyclo[4.1.0]hept-3-en-1-yl)-1-morpholinoprop-2-en-1-one]: the IC50 on BACE1 [1] amounted to 0.021 µM; on BACE1 [2] (setting [3]) it was 0.029 µM; at human recombinant BACE2 it was 0.012 µM; on Recombinant CatD, 169 µM.
